Assay results from patent publication US8883841B2, “Oncogenic ras-specific cytotoxic compound and methods of use thereof” (The Board of Regents of the University of Texas System, priority 2005, dated 2014).
Where two headings read alike, the source gives them in different places.

Columns and labels:
H322 cells = experiment: Cell viability, H322 lung cancer cells; assay type: cell-based, human; settings: Homo sapiens, NCI-H322; H322, Lung; read-out: IC50 (−LogM) (converted)
Ovca429 = experiment: Cell viability, Ovca429 ovary cancer cells; assay type: cell-based
K-562 = experiment: NCI in-vitro testing, K-562 (Leukemia)
UACC-62 = experiment: NCI in-vitro testing, UACC-62 (Melanoma)
SK-MEL-2 = experiment: NCI in-vitro testing, SK-MEL-2 (Melanoma)
HL-60(TB) = experiment: NCI in-vitro testing, HL-60(TB) (Leukemia)
CAKI-1 = experiment: NCI in-vitro testing, CAKI-1 (Renal Cancer); settings: for Percent Growth: CAK1-1
HS 578T = experiment: NCI in-vitro testing, HS 578T (Breast Cancer)
OVCAR-3 = experiment: NCI in-vitro testing, OVCAR-3 (Ovarian Cancer)
HOP-92 = experiment: NCI in-vitro testing, HOP-92 (Non-Small Cell Lung Cancer)

OCc1cn(Cc2ccc(Cl)cc2)c2ccccc12 [Oncrasin K060, 1H-Indole-3-methanol, 1-[(4-chlorophenyl)methyl]-]
IC50 (H322 cells): 31.6 µM | IC50 (Ovca429): 31.6 µM | GI50 (K-562; Homo sapiens, K562): 19.2 µM | CC50 (K-562; Homo sapiens, K562, read-out: LC50): 6.46 µM | GI50 (K-562; Homo sapiens, K562, read-out: Log10 GI50 (converted)): 1.91 µM | TGI (K-562; K-562): 1.26E−6 Molar | Percent Growth (K-562; K-562, Log10 Concentration −4.0 Molar): −71% | Percent Growth (K-562; K-562, Log10 Concentration −5.0 Molar): 8% | Percent Growth (K-562; K-562, Log10 Concentration −6.0 Molar): 67% | Percent Growth (K-562; K-562, Log10 Concentration −7.0 Molar): 100% | Percent Growth (K-562; K-562, Log10 Concentration −8.0 Molar): 114% | GI50 (UACC-62; Homo sapiens, UACC-62): 0.0451 µM | CC50 (UACC-62; Homo sapiens, UACC-62, read-out: LC50): 11.4 µM | GI50 (UACC-62; Homo sapiens, UACC-62, read-out: Log10 GI50 (converted)): 0.0447 µM | TGI (UACC-62; UACC-62): 8.97E−7 Molar | Percent Growth (UACC-62; UACC-62, Log10 Concentration −4.0 Molar): −94% | Percent Growth (UACC-62; UACC-62, Log10 Concentration −5.0 Molar): −47% | Percent Growth (UACC-62; UACC-62, Log10 Concentration −6.0 Molar): −2% | Percent Growth (UACC-62; UACC-62, Log10 Concentration −7.0 Molar): 35% | Percent Growth (UACC-62; UACC-62, Log10 Concentration −8.0 Molar): 79% | GI50 (SK-MEL-2; Homo sapiens, SK-MEL-2): 1.58 µM | CC50 (SK-MEL-2; Homo sapiens, SK-MEL-2, read-out: LC50): 48.2 µM | GI50 (SK-MEL-2; Homo sapiens, SK-MEL-2, read-out: Log10 GI50 (converted)): 1.58 µM | TGI (SK-MEL-2; SK-MEL-2): 5.94E−6 Molar | Percent Growth (SK-MEL-2; SK-MEL-2, Log10 Concentration −4.0 Molar): −64% | Percent Growth (SK-MEL-2; SK-MEL-2, Log10 Concentration −5.0 Molar): −20% | Percent Growth (SK-MEL-2; SK-MEL-2, Log10 Concentration −6.0 Molar): 67% | Percent Growth (SK-MEL-2; SK-MEL-2, Log10 Concentration −7.0 Molar): 84% | Percent Growth (SK-MEL-2; SK-MEL-2, Log10 Concentration −8.0 Molar): 98% | TGI (HL-60(TB); HL-60(TB)): 1.28E−5 Molar | Percent Growth (HL-60(TB); HL-60(TB), Log10 Concentration −4.0 Molar): −78% | Percent Growth (HL-60(TB); HL-60(TB), Log10 Concentration −5.0 Molar): 9% | Percent Growth (HL-60(TB); HL-60(TB), Log10 Concentration −6.0 Molar): 89% | Percent Growth (HL-60(TB); HL-60(TB), Log10 Concentration −7.0 Molar): 85% | Percent Growth (HL-60(TB); HL-60(TB), Log10 Concentration −8.0 Molar): 95% | GI50 (HL-60(TB); Homo sapiens, HL-60): 2.1 µM | CC50 (HL-60(TB); Homo sapiens, HL-60, read-out: LC50): 4.31 µM | GI50 (HL-60(TB); Homo sapiens, HL-60, read-out: Log10 GI50 (converted)): 2.09 µM | Percent Growth (CAKI-1; Log10 Concentration −4.0 Molar): 1% | Percent Growth (CAKI-1; Log10 Concentration −5.0 Molar): −47% | Percent Growth (CAKI-1; Log10 Concentration −6.0 Molar): −21% | Percent Growth (CAKI-1; Log10 Concentration −7.0 Molar): −3% | Percent Growth (CAKI-1; Log10 Concentration −8.0 Molar): 1% | GI50 (CAKI-1; Homo sapiens, CAKI-1): < 0.01 µM | CC50 (CAKI-1; Homo sapiens, CAKI-1, read-out: LC50): > 100 µM | GI50 (CAKI-1; Homo sapiens, CAKI-1, read-out: Log10 GI50 (converted)): < 0.01 µM | TGI (HS 578T): 2.75E−5 Molar | GI50 (HS 578T; Homo sapiens, Hs-578T): 46.8 µM | CC50 (HS 578T; Homo sapiens, Hs-578T, read-out: LC50): > 100 µM | GI50 (HS 578T; Homo sapiens, Hs-578T, read-out: Log10 GI50 (converted)): 4.68 µM | GI50 (OVCAR-3; Homo sapiens, OVCAR-3): 0.569 µM | CC50 (OVCAR-3; Homo sapiens, OVCAR-3, read-out: LC50): 69.1 µM | GI50 (OVCAR-3; Homo sapiens, OVCAR-3, read-out: Log10 GI50 (converted)): 0.575 µM | TGI (OVCAR-3; OVCAR-3): 1.03E−5 Molar | Percent Growth (OVCAR-3; OVCAR-3, Log10 Concentration −4.0 Molar): −60% | Percent Growth (OVCAR-3; OVCAR-3, Log10 Concentration −5.0 Molar): 1% | Percent Growth (OVCAR-3; OVCAR-3, Log10 Concentration −6.0 Molar): 42% | Percent Growth (OVCAR-3; OVCAR-3, Log10 Concentration −7.0 Molar): 77% | Percent Growth (OVCAR-3; OVCAR-3, Log10 Concentration −8.0 Molar): 95% | TGI (HOP-92; HOP-92): 2.39E−5 Molar | Percent Growth (HOP-92; HOP-92, Log10 Concentration −4.0 Molar): −60% | Percent Growth (HOP-92; HOP-92, Log10 Concentration −5.0 Molar): 34% | Percent Growth (HOP-92; HOP-92, Log10 Concentration −6.0 Molar): 88% | Percent Growth (HOP-92; HOP-92, Log10 Concentration −7.0 Molar): 81% | Percent Growth (HOP-92; HOP-92, Log10 Concentration −8.0 Molar): 97% | GI50 (HOP-92; Homo sapiens, HOP-92): 5.17 µM | CC50 (HOP-92; Homo sapiens, HOP-92, read-out: LC50): 77.6 µM | GI50 (HOP-92; Homo sapiens, HOP-92, read-out: Log10 GI50 (converted)): 5.13 µM
